{"source": "paper PMC6336887", "about": "“Smallest near-infrared fluorescent protein evolved from cyanobacteriochrome as versatile tag for spectral multiplexing” (Nature Communications, 2019)", "key": {"NpR3784 GAF domain": {"biological_target": "T1, NpR3784 GAF domain (Nostoc punctiforme, UniProt B2J457)", "T1 construct": "gene Npun_R3784", "assay": "near-infrared fluorescence of E. coli co-expressing heme oxygenase", "format": "cell-based", "conditions": "weak binding; BV produced in the cells"}, "miRFP670nano": {"biological_target": "T2, miRFP670nano (Nostoc punctiforme, UniProt B2J457, V48M/F66C/M67V/Y68F/P72E/S82A/A89S/N92K/Q96R/T98R/I113Y/G123N/H128Y/N140I/N158H/C160L/L177Q/Q180V, form not given)", "T2 construct": "gene Npun_R3784; single GAF domain, N-terminal alpha1-helix removed, 147 residues, 17 kDa, N-terminal polyhistidine tag, E. coli LMG194 co-expressing heme oxygenase, monomer", "assay": "X-ray crystal structure, […] A", "format": "binding", "conditions": "covalent thioether, Cys86 to C3^1 of ring A; crystals at pH 4.0; BV from co-expressed heme oxygenase"}}}
{"compound": "C=CC1=C(C)C(=Cc2[nH]c(C=C3N=C(C=C4NC(=O)C(C)=C4C=C)C(C)=C3CCC(=O)O)c(CCC(=O)O)c2C)NC1=O", "note": "[biliverdin]", "values": [{"measurement": "near-infrared fluorescence of E. coli co-expressing heme oxygenase", "setting": "NpR3784 GAF domain", "result": "the GAF domain of NpR3784 CBCR"}, {"measurement": "X-ray crystal structure, 1.95 A", "setting": "miRFP670nano", "result": "BV is covalently attached by a thioether bond between the conserved for CBCRs Cys86 residue"}]}
